Source: US8426677B2, “Method of controlling plant growth and architecture by controlling expression of gibberellin 2-oxidase” (Academia Sinica, priority 2008, dated 2013)

Columns and labels:
[1] = system: GA2ox6ACT mutant and wild type rice seeds/seedlings; experiment: Germination and seedling growth of rice on MS agar medium with or without GA3; format: in vivo, Oryza sativa
Procedure: To determine whether the dwarfism of rice mutants overexpressing GA2ox was a result of a reduction of bio-active GAs, GA2ox6ACT mutant seeds were germinated on MS agar medium with or without supplementation with 5 μM GA3.
The rice cultivar Oryza sativa L. cv Tainung 67 was used as in this study. Four T-DNA tagged rice GA2ox mutant lines were obtained from the Taiwan Rice Insertional Mutagenesis database (TRIM database, http://trim.sinica.edu.tw/). T1 mutant seeds were surface sterilized in 2.5% NaClO for 18 minutes, washed well with sterile water, placed on MS agar medium (Murashige and Skoog Basal Medium, Sigma), and incubated at 28° C. with continuous light for 15˜20 days. Wild type rice was grown under the same conditions. Plants were transplanted to pot soil and grown in a net-house during the growing season.

TB1 mRNA = experiment: RT-PCR of TB1 mRNA in embryos containing tiller buds; format: in vivo, Oryza sativa; conditions: 12 DAI
Procedure: (§1) To determine whether GA deficiency induced expression of OSH1 and TB1 that in turn promotes tillering and root development, GA2ox5Δ335-341ACT, GA2ox6ACT and wild type seedlings were grown in media with or without 5 μM GA3 after germination. Rice embryos containing tiller buds were collected at 12 DAI. […] It is not clear why the accumulation of OSH1 and TB1 mRNAs in the wild type was enhanced by GA3 (FIG. 14A), nevertheless, its stem became slenderer and adventitious root growth was inhibited similar as mutants (FIG. 14B).
(§2) Total RNA was purified from rice tissues using a Trizol reagent (Invitrogen). Total RNA (15 μg aliquots) was treated with 1 unit of RNase-free DNase I (Promega) in a 20 μL volume and incubated at 37° C. for 30 min. The RNA sample was then incubated at 65° C. for 10 min and placed on ice. cDNA synthesis was performed in a 20 μL mixture containing 1× reverse transcription reaction buffer (Invitrogen), 4.5 μg of purified RNA, 400 ng oligo (dT)16 primer, 5 mM DTT, 0.5 mM each dNTP, 40 units RNasin (Promega), and 200 units Superscript® III reverse transcriptase (Invitrogen). The reaction was carried out at room temperature (25° C.) for 10 min, transferred to 50° C. for 1 h, and terminated by heating at 72° C. for 15 min. The sample, which served as a cDNA stock for PCR analysis, was then stored at −70° C. […]

[2] = system: GA2ox6ACT mutant seedlings; experiment: Tiller and adventitious root development of seedlings grown in media with or without GA3; format: in vivo, Oryza sativa; conditions: 5 μM GA3 in medium
Description: (§3) Additionally, the inhibition of tillering by GA3 was independent of rice growth stage (see FIG. 15B). […] Both GA-treated GA2ox6ACT mutant and wild-type plants produced 2-3 times fewer tillers than mutant and wild-type plants without GA treatment (FIG. 15B).

OSH1 mRNA = experiment: RT-PCR of OSH1 mRNA in embryos containing tiller buds; format: in vivo, Oryza sativa; conditions: 12 DAI
Procedure: as §1, §2

GA2ox6 mRNA = experiment: RT-PCR of GA2ox6 mRNA in leaves and roots of seedlings; format: in vivo, Oryza sativa; conditions: GA3 treatment, wild type and GA2ox6ACT mutant seedlings at 18 DAI
Procedure: Total RNA was purified from rice tissues using a Trizol reagent (Invitrogen). Total RNA (15 μg aliquots) was treated with 1 unit of RNase-free DNase I (Promega) in a 20 μL volume and incubated at 37° C. for 30 min. The RNA sample was then incubated at 65° C. for 10 min and placed on ice. cDNA synthesis was performed in a 20 μL mixture containing 1× reverse transcription reaction buffer (Invitrogen), 4.5 μg of purified RNA, 400 ng oligo (dT)16 primer, 5 mM DTT, 0.5 mM each dNTP, 40 units RNasin (Promega), and 200 units Superscript® III reverse transcriptase (Invitrogen). The reaction was carried out at room temperature (25° C.) for 10 min, transferred to 50° C. for 1 h, and terminated by heating at 72° C. for 15 min. The sample, which served as a cDNA stock for PCR analysis, was then stored at −70° C.
RT-PCR analysis was carried out in a 15 μl, solution containing 0.9 μL cDNA, 1×PCR buffer (Promega), 1.5 mM MgCl2, 0.2 mM each dNTP, 0.3 μmole each primer, 3% DMSO, and 0.6 units of Taq DNA polymerase (Promega). For GA2ox2, GA2ox7, and GA2ox8 that had very low mRNA abundance, RT-PCR analysis was carried out using KOD Hot Start DNA Polymerase (Novagen). Each 15 μL of reaction solution contained 0.9 μL cDNA, 1×PCR buffer (Novagen), 1.0 mM MgSO4, 0.2 mM each dNTP, 0.3 μmole each primer, 3% DMSO, and 1 unit of KOD Hot Start DNA Polymerase (Novagen). […]

[3] = system: Ubi::GA2ox6 transgenic rice and wild type; experiment: GA3 treatment of wild type and Ubi::GA2ox6 transgenic rice grown in pot soil (plant height); format: in vivo, Oryza sativa; conditions: 10 μM GA3 at a 12-day interval for 5 weeks
[4] = system: wild type and GA2ox6ACT plants; experiment: Tiller number of 1-month-old plants in pot soil sprayed with GA3; format: in vivo, Oryza sativa; conditions: 10 μM GA3 spray once every 7 days, 3 sprays, GA2ox6ACT mutant and wild type
Description: as §3

[5] = In vitro enzyme activity of recombinant GST fusion GA2ox5 and GA2ox6 expressed in E. coli; format: biochemical, Oryza sativa; conditions: partially purified glutathione S-transferase fusion protein
Description: GA53, a precursor of GA1, could be converted to GA97 in vitro by the Arabidopsis class C20 GA2ox through 2β-hydroxylation (Schomburg et al., 2003). The in vitro activity of rice GA2ox5 and GA2ox6 were also investigated by overexpression as fusion proteins with glutathione S-transferase in E. coli. Fusion proteins were partially purified and their enzyme activity analyzed.
Full length cDNAs of GA2ox5 and GA2ox6 in the pGEM®-T Easy cloning vector were digested with BamHI and subcloned into the same site in pGEX-5X expression vector (Amersham Biosciences). The resulting expression vectors were used to transform E. coli strain BL21-CodonPlus® (DE3) RIPL (Stratagen). A volume of 5 mL transformants pre-cultured overnight in Luria-Bertani broth (LB broth, DIFCO) was transferred to 500 mL of LB broth with 100 mgL^−1 ampicillin and incubated at 37° C. until cell density reached an OD600 around 0.6˜0.8. Isopropyl-β-D-thiogalactopyranoside (IPTG) was added to the bacteria culture to a final concentration of 0.3 mM and incubated at 28° C. for another 3 hours. Bacteria were pelleted by centrifuge and harvested, resuspended in BugBuster® Protein Extraction Reagent (Novagen) at room temperature for 10˜20 minutes, and centrifuged at […] for 30 min. The supernatant protein extracts were partially purified through GST-Bind resin (Novagen), and the purified protein extracts were stored at −80° C. […]

[6] = 5 μM GA3, GA2ox5Δ335-341ACT and GA2ox6ACT mutants

C=C1C[C@]23C[C@@]1(O)CC[C@H]2[C@@]12C=C[C@H](O)[C@@](C)(C(=O)O1)[C@H]2[C@@H]3C(=O)O [GA3]
Root lengths of wild type and GA2ox6ACT mutant seedlings ([1]; 5 μM GA3, 18 DAI): effectively enhanced | Height of dwarf GA2ox6ACT mutant seedlings, recovery relative to the wild type ([1]; 5 μM GA3, GA2ox6ACT mutant, 18-day-old seedlings): up to 84 % of the wild type | Plant height of 18-day-old wild-type seedlings ([1]; 5 μM GA3, wild type, 18 DAI): only slightly enhanced | Germination of GA2ox6ACT seeds ([1]; 5 μM GA3 in MS agar medium): promoted germination | TB1 mRNA level in mutants (TB1 mRNA; [6]): significantly reduced | TB1 mRNA accumulation in the wild type (TB1 mRNA; 5 μM GA3, wild type): enhanced | Root system compared to the mutant without GA treatment ([2]; GA2ox6ACT mutant): significantly reduced | Time at which the first tiller developed ([2]; GA2ox6ACT mutant (9 DAI without GA treatment)): 16 DAI | OSH1 mRNA level in mutants (OSH1 mRNA; [6]): significantly reduced | OSH1 mRNA accumulation in the wild type (OSH1 mRNA; 5 μM GA3, wild type): enhanced | GA2ox6 mRNA accumulation in leaves and roots (GA2ox6 mRNA): unaffected | Final height of Ubi::GA2ox6 transgenic plants relative to the wild type [3]: 63 % of the WT | Height of wild type plant ([3]; wild type): not altered | Tillers produced compared to plants without GA treatment [4]: 2-3 times fewer

B1: GA2ox6: rice class C20 gibberellin 2-oxidase (SEQ ID NO:4), expressed in E. coli and partially purified (protein, listed as Oryza sativa)
chain: MPAFADIAIDPPLADSYRALALLRRDRDGGIAPPAVQMVGSGGAVLERDLPMVDLERLTRGGAGERKACAGAMARAASEWGFFQLTNHGVGRELMEEMRREQARLFRLPFETKEKAGLLNGSYRWGNPTATSLRHLSWSEAFHVPLASISGADCDFGDLTSLRGVMQEVAEAMSRVANTVAAALAEELTGRGGGGASAAPWFPAGCDETTCFLRLNRYPACPFAADTFGLVPHTDSDFLTVLCQDQVGGLHLMKDSRWVAVRPRPDALVVNIGDLFQAWSNNRYKSVEHKVVANAKTDRLSVAYFLCPSYDSLVGTCGEPSPYRAFTFGEYRKKVQEDVRTTGKKIGLPNFFKHSSVQ
Conversion of GA53 to GA97 (2β-hydroxylation) [5]: could convert GA53 to GA97

B2: GA2ox5: rice class C20 gibberellin 2-oxidase (SEQ ID NO:2), expressed in E. coli and partially purified (protein, listed as Oryza sativa)
chain: MEEHDYDSNSNPPLMSTYKHLFVEQHRLDMDMGAIDVDECELPVIDLAGLMEAEQVCRADMVRAASEWGFFQVTNHGVPQALLRELHDAQVAVFRRPFQEKVTERLLGFSPESYRWGTPTAKCLEQLSWSEAYHIPMTTPRPSTSIRARAVIEEVSRAMYELAQKLAEILMRGLPGAGEGETMVTTREETCFLRLNRYPPCAMAMGGFGLCPHTDSDLLTIVHQQQDTVGGLQLLKGGRWVAVKPSPSTLIVNVGDLLQAWSNDVYKSVEHRVMANATLERFSMAFFLCPSYHTLIIPSSSHVHDDDAHYRSFTFGEYRKQIMEDVRSTGRKIGLHRFRTR
Conversion of GA53 to GA97 (2β-hydroxylation) [5]: could convert GA53 to GA97
